How the values were obtained:
[1] = molecular target: Butyrylcholinesterase (Rattus norvegicus, UniProt Q9JKC1)
Description: Inhibition of rat serum butyrylcholinesterase, in the presence of a specific AChE inhibitor; BW284c51

[2] = molecular target: T1, Acetylcholinesterase (Rattus norvegicus, UniProt P37136); assay: biochemical
T1 sequence (P37136 whole entry): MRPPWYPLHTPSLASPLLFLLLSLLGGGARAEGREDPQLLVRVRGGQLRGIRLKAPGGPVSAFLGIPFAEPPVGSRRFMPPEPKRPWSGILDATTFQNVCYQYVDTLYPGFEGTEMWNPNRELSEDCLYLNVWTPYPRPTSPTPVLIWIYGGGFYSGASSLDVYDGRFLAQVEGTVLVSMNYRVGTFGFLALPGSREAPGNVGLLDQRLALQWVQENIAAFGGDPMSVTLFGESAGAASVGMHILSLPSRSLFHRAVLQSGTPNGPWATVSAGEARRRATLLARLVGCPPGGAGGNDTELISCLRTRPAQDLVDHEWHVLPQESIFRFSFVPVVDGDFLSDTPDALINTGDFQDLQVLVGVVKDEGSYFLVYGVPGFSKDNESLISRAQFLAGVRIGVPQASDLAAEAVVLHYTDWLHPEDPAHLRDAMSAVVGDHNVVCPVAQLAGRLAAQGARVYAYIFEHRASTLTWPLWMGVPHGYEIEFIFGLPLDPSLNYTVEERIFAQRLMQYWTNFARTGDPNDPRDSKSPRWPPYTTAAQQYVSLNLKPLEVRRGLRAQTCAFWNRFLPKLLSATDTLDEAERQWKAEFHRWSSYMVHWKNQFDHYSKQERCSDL
Description: Inhibition of acetylcholinesterase activity in rat cerebral cortex homogenate, in the presence of a specific butyrylcholinesterase (BChE) inhibitor; ethopropazine

Butyrylcholinesterase, sequence (Q9JKC1 whole entry): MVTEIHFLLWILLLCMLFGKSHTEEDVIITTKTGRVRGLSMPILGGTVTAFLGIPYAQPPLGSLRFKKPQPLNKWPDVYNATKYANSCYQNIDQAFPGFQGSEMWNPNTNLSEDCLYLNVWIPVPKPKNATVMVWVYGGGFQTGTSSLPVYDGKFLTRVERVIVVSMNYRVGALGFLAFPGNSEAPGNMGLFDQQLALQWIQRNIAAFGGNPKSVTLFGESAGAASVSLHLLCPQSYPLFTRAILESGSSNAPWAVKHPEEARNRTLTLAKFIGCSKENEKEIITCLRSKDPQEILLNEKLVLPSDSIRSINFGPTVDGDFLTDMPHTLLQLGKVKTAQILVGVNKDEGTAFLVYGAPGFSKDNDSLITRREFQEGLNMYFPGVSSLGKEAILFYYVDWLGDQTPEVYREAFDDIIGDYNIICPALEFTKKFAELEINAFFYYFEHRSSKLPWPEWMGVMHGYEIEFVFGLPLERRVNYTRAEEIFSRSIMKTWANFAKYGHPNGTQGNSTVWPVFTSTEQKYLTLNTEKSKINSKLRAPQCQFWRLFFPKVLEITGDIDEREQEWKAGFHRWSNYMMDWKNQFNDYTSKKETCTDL

Structure (SMILES) | IC50 [1] [µM] | IC50 [2] [µM]
CN(C)CCCCCCCCCCCCNc1c2c(nc3ccccc13)CCCC2 | 0.695 | 0.264
CN(C)CCCCCCCCCCNc1c2c(nc3ccccc13)CCCC2 | 0.581 | 0.045
NCCCCCCCNc1c2c(nc3ccccc13)CCCC2 | 0.357 | 0.319
NCCCCCCCCCCNc1c2c(nc3ccccc13)CCCC2 | 0.682 | 0.147
CN(C)CCCCCCCCNc1c2c(nc3ccccc13)CCCC2 | 0.17 | 0.047
c1ccc2c(NCCCCCCCNc3ccncc3)c3c(nc2c1)CCCC3 | 0.302 | 0.0128
c1ccc2c(NCCCCCCCCNc3c4c(nc5ccccc35)CCCC4)ccnc2c1 | 0.126 | 0.0088
CN(C)CCCCCCCCCNc1c2c(nc3ccccc13)CCCC2 | 0.237 | 0.071
c1ccc2c(NCCCCCCCCCCCCNc3ccncc3)c3c(nc2c1)CCCC3 | 0.377 | 0.261
CN(C)CCCCCCCNc1c2c(nc3ccccc13)CCCC2 | 0.143 | 0.052
c1ccc2c(NCCCCCCCCCNc3ccncc3)c3c(nc2c1)CCCC3 | 0.2 | 0.0836
c1ccc2c(NCCCCCCCCNc3ccncc3)c3c(nc2c1)CCCC3 | 0.157 | 0.0136
c1ccc2c(NCCCCCCCCCCNc3ccncc3)c3c(nc2c1)CCCC3 | 0.427 | 0.176
c1ccc2c(NCCCCCCCCCNc3c4c(nc5ccccc35)CCCC4)ccnc2c1 | 0.156 | 0.0387
NCCCCCCCCCCCCNc1c2c(nc3ccccc13)CCCC2 | 0.791 | 0.18
NCCCCCCCCNc1c2c(nc3ccccc13)CCCC2 | 0.202 | 0.0894
c1ccc2c(NCCCCCCCNc3c4c(nc5ccccc35)CCCC4)ccnc2c1 | 0.11 | 0.0101
NCCCCCCCCCNc1c2c(nc3ccccc13)CCCC2 | 0.687 | 0.131
Cc1cccc2c(NCCCCCCCNc3c4c(nc5ccccc35)CCCC4)c3c(nc12)CCCC3 | – | 0.0015
Cc1cccc2c(NCCCCCCCCNc3c4c(nc5ccccc35)CCCC4)c3c(nc12)CCCC3 | 0.105 | 0.0078
Nc1ccncc1 [DALFAMPRIDINE] | – | > 500
Nc1ccnc2ccccc12 [QUINOLIN-4-AMINE] | – | 50.7

— ChEMBL document CHEMBL1132438, “Heterodimeric tacrine-based acetylcholinesterase inhibitors: investigating ligand-peripheral site interactions” (J Med Chem, 1999)
